According to patent publication US11254663B2 (BRISTOL-MYERS SQUIBB COMPANY, priority 2019, dated 2022):

biological target: FXR (Homo sapiens (Human), UniProt Q96RI1); experiment: transient human FXR/Gal4-luciferase reporter assay; assay type: cell-based; conditions: not given
Experimental: A Gal4-hFXR fusion construct reporter system was used as the primary assay to characterize compound activity. A construct including 5 copies of the Gal4 promoter response element upstream of a firefly luciferase reporter cDNA was stably expressed in HEK293 cells. This reporter cell line was maintained in Dulbecco's Modified Eagle's medium (DMEM; Gibco) supplemented with 1% penicillin-streptomycin (P/S) solution, 500 μg/mL Zeocin and 10% charcoal/dextran-treated fetal bovine serum (cs-FBS) at 37° C. in a humidified 5% CO2 atmosphere. Another plasmid was constructed in which the human cytomegalovirus promoter in the pcDNA3.1 vector directs the expression of the cDNA encoding a fusion protein comprised of the DNA binding domain from the Gal4 transcription factor fused to the ligand binding domain from human FXR.
The day prior to transfection, the reporter cells in culture are detached from the plate with trypsin and plated into a T75 flask at a sufficient density to achieve approximately 90% confluence the next morning. The transfection reagents are prepared by separately diluting 25 μg of the pcDNA3.1-Gal4-FXR plasmid into 1.87 mL of Opti-MEM (Thermo-Fisher), and 40 μL of Lipofectamine 2000 (Thermo-Fisher) into 1.87 mL of Opti-MEM, and then adding the diluted DNA solution into the diluted Lipofectamine 2000 solution and incubating at room temperature for 15-20 minutes. The mixture is further diluted with 10 mL of a solution comprised of DMEM, 10% cs-FBS, and 1% P/S immediately prior to transferring to the cells. The maintenance culture media is aspirated from the cells and the final transfection mixture is added before the cells are incubated overnight at 37° C. in a humidified 5% CO2 atmosphere. This protocol can be scaled up, and the transiently transfected cells can be cryopreserved in an assay-ready format.
For compound testing, 100 nL of the compounds (serial dilutions in DMSO) are dispensed with an Echo acoustic dispenser (Labcyte) into the wells of a Corning/Costar clear bottom 384-well white plate. The transfected cells are harvested, counted, and diluted such that 10-25,000 cells in 25 μL are plated into each well of the 384-well compound assay plate. The compound-treated cells are incubated overnight at 37° C. in a humidified 5% CO2 atmosphere. The next morning 25 μL of Steady-Glo (Promega) are added to each well of the plate, the mixture is incubated for 15 min. with shaking, and luminescence is measured on an Envision (Perkin Elmer) plate reader.

Chain of FXR (Q96RI1 262-486): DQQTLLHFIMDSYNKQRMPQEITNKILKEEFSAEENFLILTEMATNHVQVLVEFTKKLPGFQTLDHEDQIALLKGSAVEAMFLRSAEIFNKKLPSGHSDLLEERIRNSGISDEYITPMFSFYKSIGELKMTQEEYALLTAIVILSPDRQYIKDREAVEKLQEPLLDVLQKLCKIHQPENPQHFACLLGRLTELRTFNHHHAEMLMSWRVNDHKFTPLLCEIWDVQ

SMILES	EC50
CCOc1ccc(-c2ccnc(N(CC34CCC(c5noc(C(C)(C)C)n5)(CC3)CC4)C(=O)C34CC(F)(C3)C4)c2)cn1 [Example 536, N-((4-(5-(tert-butyl)-1,2,4-oxadiazol-3-yl)bicyclo[2.2.2]octan-1-yl)methyl)-N-(6-ethoxy-[3,4′-bipyridin]-2′-yl)-3-fluorobicyclo[1.1.1]pentane-1-carboxamide]	29 nM
CCOc1ccc(-c2cccc(N(CC34CCC(c5ccc(C(F)(F)F)cn5)(CC3)CC4)C(=O)C34CC(F)(C3)C4)c2)cn1 [Example 492, N-(3-(6-ethoxypyridin-3-yl)phenyl)-3-fluoro-N-((4-(5-(trifluoromethyl)pyridin-2-yl)bicyclo[2.2.2]octan-1-yl)methyl)bicyclo[1.1.1]pentane-1-carboxamide]	567 nM
CC(C)(O)c1ccc(-c2cccc(N(CC34CCC(c5noc(C(C)(C)F)n5)(CC3)CC4)C(=O)NCC3(CO)CCOCC3)c2)cc1 [Example 647, 1-((4-(5-(2-fluoropropan-2-yl)-1,2,4-oxadiazol-3-yl)bicyclo[2.2.2]octan-1-yl)methyl)-3-((4-(hydroxymethyl)tetrahydro-2H-pyran-4-yl)methyl)-1-(4′-(2-hydroxypropan-2-yl)-[1,1′-biphenyl]-3-yl)urea]	581 nM
CC(C)(O)c1ccc(-c2cccc(N(CC34CCC(c5noc(C(C)(C)F)n5)(CC3)CC4)C(=O)NCCC3(O)CCCC3)c2)cc1 [Example 650, 1-((4-(5-(2-fluoropropan-2-yl)-1,2,4-oxadiazol-3-yl)bicyclo[2.2.2]octan-1-yl)methyl)-3-(2-(1-hydroxycyclopentyl)ethyl)-1-(4′-(2-hydroxypropan-2-yl)-[1,1′-biphenyl]-3-yl)urea]	472 nM

same assay, conditions: Gal4-hFXR fusion construct, HEK293 reporter cells; response relative to 8 μM GW-4064

SMILES	EC50
CS(=O)(=O)Nc1ccc(-c2cccc(N(CC34CCC(c5cnc(C(F)(F)F)nc5)(CC3)OC4)C(=O)C34CC(F)(C3)C4)c2)cc1 [Example 419, 3-fluoro-N-(4′-(methylsulfonamido)-[1,1′-biphenyl]-3-yl)-N-((1-(2-(trifluoromethyl)pyrimidin-5-yl)-2-oxabicyclo[2.2.2]octan-4-yl)methyl)bicyclo[1.1.1]pentane-1-carboxamide]	523 nM
CC1(c2nc(C34CCC(CN(C(=O)C56CC(F)(C5)C6)c5cccc(-c6cnc(C(F)(F)F)nc6)c5)(CC3)CC4)no2)CC1 [Example 404, 3-fluoro-N-((4-(5-(1-methylcyclopropyl)-1,2,4-oxadiazol-3-yl)bicyclo[2.2.2]octan-1-yl)methyl)-N-(3-(2-(trifluoromethyl)pyrimidin-5-yl)phenyl)bicyclo[1.1.1]pentane-1-carboxamide]	221 nM
CC(C)c1nc(C23CCC(CN(C(=O)C45CC(F)(C4)C5)c4cccc(-c5cnc(C6CC6)nc5)c4)(CC2)CC3)no1 [Example 434, N-(3-(2-cyclopropylpyrimidin-5-yl)phenyl)-3-fluoro-N-((4-(5-isopropyl-1,2,4-oxadiazol-3-yl)bicyclo[2.2.2]octan-1-yl)methyl)bicyclo[1.1.1]pentane-1-carboxamide]	57 nM
CCOc1ncc(-c2cccc(N(CC34CCC(c5noc(C6(C)COC6)n5)(CC3)CC4)C(=O)[C@H]3C[C@@H](OC)C3)c2)cn1 [Example 518, (cis)-N-(3-(2-ethoxypyrimidin-5-yl)phenyl)-3-methoxy-N-((4-(5-(3-methyloxetan-3-yl)-1,2,4-oxadiazol-3-yl)bicyclo[2.2.2]octan-1-yl)methyl)cyclobutane-1-carboxamide]	1290 nM
O=C(N(CC12CCC(c3nc(C4CC4)no3)(CC1)CC2)c1cccc(-c2ccc3[nH]c(=O)oc3c2)c1)C12CC(F)(C1)C2 [Example 261, N-((4-(3-cyclopropyl-1,2,4-oxadiazol-5-yl)bicyclo[2.2.2]octan-1-yl)methyl)-3-fluoro-N-(3-(2-oxo-2,3-dihydrobenzo[d]oxazol-6-yl)phenyl)bicyclo[1.1.1]pentane-1-carboxamide]	48 nM
CS(=O)(=O)Nc1ncc(-c2cccc(N(CC34CCC(c5nc(C6CC6)no5)(CC3)CC4)C(=O)C34CC(F)(C3)C4)c2)cn1 [Example 272, N-((4-(3-cyclopropyl-1,2,4-oxadiazol-5-yl)bicyclo[2.2.2]octan-1-yl)methyl)-3-fluoro-N-(3-(2-(methylsulfonamido)pyrimidin-5-yl)phenyl)bicyclo[1.1.1]pentane-1-carboxamide]	559 nM
COc1cnc(-c2cccc(N(CC34CCC(c5nc(C6CC6)no5)(CC3)CC4)C(=O)C34CC(F)(C3)C4)c2)nc1 [Example 334, N-((4-(3-cyclopropyl-1,2,4-oxadiazol-5-yl)bicyclo[2.2.2]octan-1-yl)methyl)-3-fluoro-N-(3-(5-methoxypyrimidin-2-yl)phenyl)bicyclo[1.1.1]pentane-1-carboxamide]	77 nM
CCOc1ccc(-c2cccc(N(CC34CCC(c5nc(C(C)(C)C)no5)(CC3)CC4)C(=O)C34CC(F)(C3)C4)c2)cn1 [Example 360, N-((4-(3-(tert-butyl)-1,2,4-oxadiazol-5-yl)bicyclo[2.2.2]octan-1-yl)methyl)-N-(3-(6-ethoxypyridin-3-yl)phenyl)-3-fluorobicyclo[1.1.1]pentane-1-carboxamide]	147 nM
CC(C)(F)c1nc(C23CCC(CN(C(=O)OC(C)(C)C(F)(F)F)c4cccc(-c5ccc(C6(C#N)CC6)c(F)c5)c4)(CC2)CC3)no1 [Example 591, 1,1,1-trifluoro-2-methylpropan-2-yl (4′-(1-cyanocyclopropyl)-3′-fluoro-[1,1′-biphenyl]-3-yl)((4-(5-(2-fluoropropan-2-yl)-1,2,4-oxadiazol-3-yl)bicyclo[2.2.2]octan-1-yl)methyl) carbamate]	77 nM
Cn1nc(C2CC2)cc1C12CCC(CN(C(=O)C34CC(F)(C3)C4)c3cccc(-c4ccc(NS(C)(=O)=O)cc4)c3)(CC1)CC2 [Example 412, N-((4-(3-cyclopropyl-1-methyl-1H-pyrazol-5-yl)bicyclo[2.2.2]octan-1-yl)methyl)-3-fluoro-N-(4′-(methylsulfonamido)-[1,1′-biphenyl]-3-yl)bicyclo[1.1.1]pentane-1-carboxamide]	105 nM
COc1ncc(-c2cccc(N(CC34CCC(c5nc(C(C)(C)C)no5)(CC3)CC4)C(=O)C34CC(F)(C3)C4)c2)cn1 [Example 363, N-((4-(3-(tert-butyl)-1,2,4-oxadiazol-5-yl)bicyclo[2.2.2]octan-1-yl)methyl)-3-fluoro-N-(3-(2-methoxypyrimidin-5-yl)phenyl)bicyclo[1.1.1]pentane-1-carboxamide]	70 nM
CC(C)(F)c1nc(C23CCC(CN(c4cccc(C5=CCOCC5)c4)C(=O)[C@H]4C[C@](O)(C(F)(F)F)C4)(CC2)CC3)no1 [Example 588, (cis)-N-(3-(3,6-dihydro-2H-pyran-4-yl)phenyl)-N-((4-(5-(2-fluoropropan-2-yl)-1,2,4-oxadiazol-3-yl)bicyclo[2.2.2]octan-1-yl)methyl)-3-hydroxy-3-(trifluoromethyl) cyclobutane-1-carboxamide]	395 nM
Cc1nc2ccc(-c3cccc(N(CC45CCC(c6noc(C(C)(C)C)n6)(CC4)CC5)C(=O)C45CC(F)(C4)C5)c3)cc2s1 [Example 441, N-((4-(5-(tert-butyl)-1,2,4-oxadiazol-3-yl)bicyclo[2.2.2]octan-1-yl)methyl)-3-fluoro-N-(3-(2-methylbenzo[d]thiazol-6-yl)phenyl)bicyclo[1.1.1]pentane-1-carboxamide]	68 nM
O=C(N(CC12CCC(c3nc(C(F)F)no3)(CC1)CC2)c1cccc(-c2cnc(C3CC3)nc2)c1)C12CC(F)(C1)C2 [Example 466, N-(3-(2-cyclopropylpyrimidin-5-yl)phenyl)-N-((4-(3-(difluoromethyl)-1,2,4-oxadiazol-5-yl)bicyclo[2.2.2]octan-1-yl)methyl)-3-fluorobicyclo[1.1.1]pentane-1-carboxamide]	349 nM
Cc1nc2ccc(-c3cccc(N(CC45CCC(c6nc(C(C)C)no6)(CC4)CC5)C(=O)C45CC(F)(C4)C5)c3)cc2s1 [Example 378, 3-fluoro-N-((4-(3-isopropyl-1,2,4-oxadiazol-5-yl)bicyclo[2.2.2]octan-1-yl)methyl)-N-(3-(2-methylbenzo[d]thiazol-6-yl)phenyl)bicyclo[1.1.1]pentane-1-carboxamide]	53 nM
Cc1nc2ccc(-c3ccnc(N(CC45CCC(c6nc(C7CC7)no6)(CC4)CC5)C(=O)C45CC(F)(C4)C5)c3)cc2s1 [Example 549, N-((4-(3-cyclopropyl-1,2,4-oxadiazol-5-yl)bicyclo[2.2.2]octan-1-yl)methyl)-3-fluoro-N-(4-(2-methylbenzo[d]thiazol-6-yl)pyridin-2-yl)bicyclo[1.1.1]pentane-1-carboxamide]	36 nM
